In patent publication US20240261422A1, “ANTHRACYCLINE ANTIBODY CONJUGATES” (SEAGEN INC., priority 2021, published 2024):

Assays:
[1] = test system: L428, MDR + HL; assay: In vitro growth inhibition (CellTiter-Glo, 96 h), L428; format: cell-based; settings: cAC10 (anti-CD30) ADCs, average DAR 4
Procedure: (§1) Cell culture of cell lines as listed in Table 2-4 in log-phase growth were seeded in 96-well plates and grown for 24 h in cell culture media containing 150 μL RPMI 1640 supplemented with 20% FBS (see Mol. Cancer Ther., 2016, 15(5), 938-945 and Mol. Cancer Ther., 2018, 17(8), 1752-1760). Serial dilutions of free drugs or antibody-drug conjugates (final concentration between 0.004 nM and 1 μM) in cell culture media were prepared at 4× working concentrations; 50 μL of each dilution was added to the 96-well plates. Following addition of the drug or ADC, the cells were incubated with test articles (free drugs or ADCs) for 4 d at 37° C. After 96 h, growth inhibition was assessed by CellTiter-Glo® (Promega, Madison, WI) and luminescence was measured on a plate reader (brand, model).
(§2) Anti-CD30 ADCs comprising cAC10 antibody conjugated to drug-linkers 24, 32, 29, 18, 14, and 48 with an average DAR of 4 were prepared for evaluation on a CD30-expressing lymphoma cell line panel. […] Anti-CD30 conjugates bearing the PNU linkers 24, 32, 29, 18, and 14 were active on L540cy, DEL, and Karpas299 lymphoma cell lines, and conjugate 48 was active on L540cy and DEL cell lines, with IC50s ranging from 0.2-4 ng/mL.

[2] = test system: L540cy Hodgkin's lymphoma xenograft; assay: L540cy CD30+ Hodgkin lymphoma xenograft model; format: in vivo, SCID mice; settings: cAC10 S239C ADCs, average DAR 2; single dose i.p. at about 100 mm^3
Procedure: (§3) All experiments were conducted in concordance with the Animal Care and Use Committee in a facility fully accredited by the Association for Assessment and Accreditation of Laboratory Animal Care. Efficacy experiments were conducted using the L540cy Hodgkin's lymphoma and DEL/BVR anaplastic large cell lymphoma xenograft models (Mol. Cancer Ther., 2018, 17(8), 1752-1760). Tumor cells, as a cell suspension, were implanted subcutaneously in immune-compromised SCID female mice. Upon tumor engraftment, the mice were randomized into study groups when the average tumor volume reached about 100 mm^3. The ADCs were dosed once via intraperitoneal injection. Tumor volume as a function of time was determined using the formula (L×W2)/2. Animals were euthanized when tumor volumes reached 1000 mm^3.
Anti-CD30 conjugates bearing PNU drug-linkers 29, 18, and 14 were evaluated in a CD30-expressing xenograft model as described above. cAC10 antibody with the S239C mutation is conjugated to the PNU drug linkers with an average DAR of 2 to minimize the effects of ADC pharmacokinetics. Tumor-bearing mice were administered a single dose intraperitoneally (i.p.) of test article once the average tumor volume reached 100 mm^3 (typically on day 8). Untreated mice were used as negative controls.

[3] = test system: L540cy, HL; assay: In vitro growth inhibition (CellTiter-Glo, 96 h), L540cy; format: cell-based
Procedure: as §1
(§4) Cells were treated for 96 hours with anthracycline analogues listed in Table 2, and then assessed for viability as described in the procedures as described above. […] ND denotes value not determined with that assay for the specified compound.
(§5) ADCs were prepared by full reduction of interchain disulfides to reveal 8-conjugatable cysteines/antibody, and subsequent alkylation with the maleimide-containing drug-linkers (Compounds 14, 18, 21, 24, 29, 32, 33, 34, and 48) according to the procedures described in Mol. Cancer Ther. 2018, 17(8). 1752-1760. Conjugates of antibody cOKT9 were prepared with anthracycline linkers. Cancer cell lines were treated with cOKT9 ADCs (average DAR of 8:1) for 96 h and then assessed for viability. […] ND denotes value not determined with that assay for the specified compound.
as §2

[4] = test system: DEL, ALCL; assay: In vitro growth inhibition (CellTiter-Glo, 96 h), DEL; format: cell-based; settings: cAC10 (anti-CD30) ADCs, average DAR 4
Procedure: as §1, §2

[5] = test system: HL60, AML; assay: In vitro growth inhibition (CellTiter-Glo, 96 h), HL60; format: cell-based; settings: cOKT9 ADCs, average DAR 8, 96 h
Procedure: as §1, §4, §5

[6] = test system: 786-O, MDR + RCC; assay: In vitro growth inhibition (CellTiter-Glo, 96 h), 786-O; format: cell-based; settings: cOKT9 ADCs, average DAR 8, 96 h
Procedure: as §1, §4, §5

[7] = test system: HL60/RV, MDR + AML; assay: In vitro growth inhibition (CellTiter-Glo, 96 h), HL60/RV; format: cell-based; settings: cOKT9 ADCs, average DAR 8, 96 h
Procedure: as §1, §4, §5

[8] = test system: DEL/BVR anaplastic large cell lymphoma xenograft; assay: DEL/BVR MDR+, CD30+ anaplastic large cell lymphoma xenograft model; format: in vivo, SCID mice; settings: cAC10 S239C ADCs, average DAR 2; 3 mg/kg single dose i.p.
Procedure: as §3
Anti-CD30 conjugates bearing PNU drug-linkers 29, 18, and 14 were further evaluated in a DEL/BVR MDR+, CD30+ anaplastic large cell lymphoma xenograft model. cAC10 antibody with the S239C mutation is conjugated to the PNU drug linkers with an average DAR of 2 to minimize the effects of ADC pharmacokinetics. Tumor-bearing mice were administered a 3 mg/kg single dose intraperitoneally (i.p.) of test article once the average tumor volume reached 100 mm^3 (typically on day 4). […] However, the conjugate comprising PNU linker 29 appeared to be non-efficacious, and only provided minimal tumor growth delay (FIG. 2). Untreated mice were used as negative controls.

[9] = test system: Karpas299, ALCL; assay: In vitro growth inhibition (CellTiter-Glo, 96 h), Karpas299; format: cell-based; settings: cAC10 (anti-CD30) ADCs, average DAR 4
Procedure: as §1, §2

[10] = test system: Ramos, CD30 − NHL; assay: In vitro growth inhibition (CellTiter-Glo, 96 h), Ramos; format: cell-based; settings: cAC10 (anti-CD30) ADCs, average DAR 4
Procedure: as §1, §2

[11] = test system: L540cy, 786-O, BxPC3, HL60, HL60/RV; settings: for IC50s of cOKT9 conjugates: 24 h
[12] = test system: BxPC3, PancCa; assay: In vitro growth inhibition (CellTiter-Glo, 96 h), BxPC3; format: cell-based; settings: cOKT9 ADCs, average DAR 8, 96 h
Procedure: as §1, §4, §5

[13] = test system: CD30-expressing lymphoma cell line panel; format: cell-based; settings: cAC10 ADC DAR 4
Procedure: as §1, §2

[14] = cAC10 (anti-CD30) ADCs, average DAR 4
[15] = cOKT9 ADCs, average DAR 8, 96 h

Compound | IC50 (ng/mL) L428, MDR + HL [1] | antitumor activity, L540cy xenograft (FIG. 1) [2] | IC50 (ng/mL) L540cy, HL [3, 14] | IC50 (ng/mL) L540cy, HL [3, 15] | IC50 (ng/mL) DEL, ALCL [4] | IC50 (ng/mL) HL60, AML [5] | IC50 (ng/mL) 786-O, MDR + RCC [6] | IC50 (ng/mL) HL60/RV, MDR + AML [7] | antitumor activity, DEL/BVR xenograft (FIG. 2) [8] | IC50 (ng/mL) Karpas299, ALCL [9] | IC50 (ng/mL) Ramos, CD30 − NHL [10] | IC50s of cOKT9 conjugates [11] | IC50 (ng/mL) BxPC3, PancCa [12] | IC50 values of anti-CD30 conjugate, highest dose tested [13] | activity of cOKT9 conjugates across the panel of cancer cell lines ([11]; cOKT9 ADCs DAR 8, result in words)
COc1cccc2c1C(=O)c1c(O)c3c(c(O)c1C2=O)C[C@@](O)(C(=O)NCCNC(=O)CNC(=O)CNC(=O)CNC(=O)CCN1C(=O)C=CC1=O)C[C@@H]3O[C@H]1C[C@H]2[C@H](O[C@@H]3[C@@H](OC)OCCN32)[C@H](C)O1 [Compound 18, (2S,4S)—N-(15-(2,5-dioxo-2,5-dihydro-1H-pyrrol-1-yl)-4,7,10,13-tetraoxo-3,6,9,12-tetraazapentadecyl)-2,5,12-trihydroxy-7-methoxy-4-(((1S,3R,4aS,9S,9aR,10aS)-9-methoxy-1-methyloctahydro-1H-pyrano[4′,3′:4,5]oxazolo[2,3-c][1,4]oxazin-3-yl)oxy)-6,11-dioxo-1,2,3,4,6,11-hexahydrotetracene-2-carboxamide] | D (100 ng/mL≤IC50<500 ng/mL) | active with a majority of animals in a complete regression | B (1 ng/mL≤IC50<10 ng/mL) | A (IC50<10 ng/mL) | A (IC50<1 ng/mL) | B (10 ng/mL≤IC50<100 ng/mL) | A (IC50<10 ng/mL) | D (IC50≥1000 ng/mL) | efficacious in suppressing tumor growth | A (IC50<1 ng/mL) | D (100 ng/mL≤IC50<500 ng/mL) | 1 to 150 ng/mL | A (IC50<10 ng/mL) | – | –
COc1cccc2c1C(=O)c1c(O)c3c(c(O)c1C2=O)C[C@@](O)(C(=O)NCCNC(=O)CNC(=O)CNC(=O)CNC(=O)OCc1ccc(NC(=O)[C@H](C)NC(=O)[C@@H](NC(=O)CCN2C(=O)C=CC2=O)C(C)C)cc1)C[C@@H]3O[C@H]1C[C@H]2[C@H](O[C@@H]3[C@@H](OC)OCCN32)[C@H](C)O1 [Compound 29, 4-((S)-2-((S)-2-(3-(2,5-dioxo-2,5-dihydro-1H-pyrrol-1-yl)propanamido)-3-methylbutanamido)propanamido)benzyl (1,6,9,12-tetraoxo-1-((2S,4S)-2,5,12-trihydroxy-7-methoxy-4-(((1S,3R,4aS,9S,9aR,10aS)-9-methoxy-1-methyloctahydro-1H-pyrano[4′,3′:4,5]oxazolo[2,3-c][1,4]oxazin-3-yl)oxy)-6,11-dioxo-1,2,3,4,6,11-hexahydrotetracen-2-yl)-2,5,8,11-tetraazatridecan-13-yl)carbamate] | E (IC50≥500 ng/mL) | active with a majority of animals in a complete regression | B (1 ng/mL≤IC50<10 ng/mL) | A (IC50<10 ng/mL) | A (IC50<1 ng/mL) | B (10 ng/mL≤IC50<100 ng/mL) | B (10 ng/mL≤IC50<100 ng/mL) | D (IC50≥1000 ng/mL) | non-efficacious | A (IC50<1 ng/mL) | E (IC50≥500 ng/mL) | 1 to 150 ng/mL | A (IC50<10 ng/mL) | – | –
COc1cccc2c1C(=O)c1c(O)c3c(c(O)c1C2=O)C[C@@](O)(C(=O)NCCNC(=O)CNC(=O)CNC(=O)CNC(=O)CCN1C(=O)C=CC1=O)C[C@@H]3O[C@H]1C[C@H](N2CCO[C@H](OC)C2)[C@H](O)[C@H](C)O1 [Compound 33, (2S,4S)—N-(15-(2,5-dioxo-2,5-dihydro-1H-pyrrol-1-yl)-4,7,10,13-tetraoxo-3,6,9,12-tetraazapentadecyl)-2,5,12-trihydroxy-4-(((2R,4S,5S,6S)-5-hydroxy-4-((S)-2-methoxymorpholino)-6-methyltetrahydro-2H-pyran-2-yl)oxy)-7-methoxy-6,11-dioxo-1,2,3,4,6,11-hexahydrotetracene-2-carboxamide] | – | – | – | D (IC50≥1000 ng/mL) | – | D (IC50≥1000 ng/mL) | D (IC50≥1000 ng/mL) | D (IC50≥1000 ng/mL) | – | – | – | – | D (IC50≥1000 ng/mL) | > 20,000 ng/ml | inactive
